Results: patent US20140228398A1, “COMBINATIONS OF ALPHA 7 NICOTINIC ACETYLCHOLINE RECEPTOR ACTIVATORS AND mGluR5 ANTAGONISTS FOR USE IN DOPAMINE INDUCED [sequence] IN PARKINSON'S DISEASE” (NOVARTIS AG, priority 2011, published 2014)

Columns and labels:
[1] = Oral bioavailability and brain penetration in mice; format: in vivo; settings: 30 μmol/kg p.o., ± SD
Procedure: […] Male mice (30-35g, OF1/ICstrain) were sacrificed at indicated time points after oral administration. Trunk-blood was collected in EDTA-containing tubes and the brain was removed and immediately frozen on dry ice. To 100 μl plasma 10 μl internal standard (1.0 pmol of a compound with solubility and ionization properties similar to test compounds) was added and extracted three times with 500 μl dichloromethane. The combined extracts were then dried under a stream of nitrogen and re-dissolved in 100 μl acetonitrile/water (70% acetonitrile). Brains were weighed and homogenized in water (1:5 w/v). Two 100 μl aliquots of each homogenate+10 μl of internal standard (same standard as used for the plasma samples) were extracted three times with 500 μl dichloromethane and further processed as the plasma samples. Samples were separated on Beckmann high-performance liquid chromatography equipment system with an autosampler (Gilson 233XL).
The limit of detection (LOD), defined as the lowest concentration of the extracted standard sample with a signal to noise ratio of ˜3.

[2] = test system: parkinsonian primates; assay: Movement disorder model: antidyskinetic effect in parkinsonian (MPTP) primates; format: in vivo, cynomolgus monkeys (Macaca fascicularis); settings: for locomotor response / mean parkinsonian score: parkinsonian primates; for mean parkinsonian score: reduced from 9.4
Procedure: Female ovariectomized cynomolgus monkeys (Macaca fascicularis) are used in the assessment. The animals can be rendered parkinsonian by continuous infusion of 1-methyl-4-phenyl-1,2,3,6-tetrahydropyridine (MPTP) until they develop a stable parkinsonian syndrome. After recuperation, animals are treated daily with levodopa until clear and reproducible dyskinesias are developed.
Monkeys are observed through a one-way screen window in their home cage. They are observed and scored repeatedly at baseline and after a standard s.c. dose of levodopa. Locomotor activity is assessed and followed with an electronic monitoring system. Antiparkinsonian responses are evaluated by measuring the locomotor activity and a Parkinson disability scale (see Hadj Tahar A et al, Clin Neuropharmacol 2000; 23:195-202; and Samadi P et al, Neuropharmacology 2003; 45:954-963). Dyskinesias are closely monitored and scored according to a dyskinesia rating scale (also described in Hadj Tahar A et al; and Samadi P et al) every 15 minutes until the end of the effect. The doses of levodopa are chosen to induce motor activation and reproducible dyskinesia but no excessive agitation.
Monkeys are observed for at least two hours following an oral administration of vehicle. On a subsequent day, the dose of levodopa selected is tested once. The animals are observed (with measures of parkinsonian and dyskinetic scores) for the entire duration of the levodopa effect and are also monitored for locomotor activity. This provides vehicle control values as well as levodopa antiparkinsonian and dyskinesia response data for comparison with combinations of a α7-nAChR agonist/positive allosteric modulator and levodopa. The monkeys are then tested with a α7-nAChR agonist/positive allosteric modulator in combination with a fixed dose of levodopa. A suspension for oral administration of the α7-nAChR agonist/positive allosteric modulator is administered before levodopa. After each dose, the animals are observed (with measures of parkinsonian and dyskinetic scores) for the entire duration of effect and monitored for locomotor activity or any change in behavior (e.g. circling, excitement, lethargy and sleepiness).
Using this protocol, compound A-1 at a dose of 20 mg/kg was tested. Results based on five monkeys (levodopa/benserazide doses: 22.5/50 mg; 65/50 mg; 30/50 mg; 35/50 mg; and 25/50 mg) are shown in FIGS. 1-4.
For experiments shown in FIGS. 5 and 6 parkinsonian primates were treated orally with 10 mg/kg MPEP, 20 mg/kg JN403 and a combination of MPEP (10 mg/kg) and JN403 (20 mg/kg). In said experiments, compound MPEP increased the locomotor response from 230 count over 4 h to 810.

[3] = test system: mice; assay: Social Recognition Test in mice; format: in vivo, mouse; settings: oral, dose 3 mg/kg, familiar partner at 24 h vs time 0
Procedure: Social interactions between two experimental animals are influenced by their degree of familiarity: the better they know each other, the less time they spend on mutual scrutiny at each meeting. […] Memory enhancing agents (i.e. oxiracetam) facilitate learning to the extent that the previously met (familiar) partner is still remembered after 24 h, whereas in vehicle treated control animals the memory usually fades after less than 1 hour (Thor and Holloway, 1982) or after 2-3 hours.
Baseline-test: Pairs consisting of one adult and one young mouse were assigned at random to the experimental and control groups. In each pair only the adult mouse was orally treated 1 hour before the trial with either vehicle or the test compound. The duration of active contacts of the adult mouse with the young mouse was manually recorded over a period of 3 min, including the following behavioural, approach-related items: sniffing, nosing, grooming, licking, pawing and playing, anogenital exploration and orientation toward the young mouse; orientation, thereby, was defined as tip of nose of the adult mouse less than approximately 1 cm distant from the young mouse's body. […]

[4] = test system: parkinsonian primates; settings: data published in WO2009047296 and Gregoire et al 2011; cited from earlier work
[5] = compound A-1 20 mg/kg oral with levodopa/benserazide, five monkeys

| SMILES | Brain ([1]; 0.25 hour) [pmol/g] | Brain ([1]; 0.5 hour) [pmol/g] | Brain ([1]; 1 hour) [pmol/g] | Brain ([1]; 2 hour) [pmol/g] | Brain ([1]; 4 hour) [pmol/g] | Brain ([1]; 8 hour) [pmol/g] | Brain ([1]; 24 hour) [pmol/g] | also measured |
| --- | --- | --- | --- | --- | --- | --- | --- | --- |
| C[C@H]1[C@H](Oc2ccc(-c3ccc4[nH]ccc4c3)nn2)C2CCN1CC2 [B-13, (2S,3R)-3-[6-(1H-indol-5-yl)-pyridazin-3-yloxy]-2-methyl-1-aza-bicyclo[2.2.2]octane] | 1884 ± 291 | 2960 ± 706 | 2940 ± 335 | 1260 ± 172 | 379 ± 134 | 93 ± 30 | 13 ± 4 |  |
| C[C@H](OC(=O)N[C@@H]1CN2CCC1CC2)c1ccccc1F [A-1, (S)-(1-aza-bicyclo[2.2.2]oct-3-yl)-carbamic acid (S)-1-(2-fluoro-phenyl)-ethyl ester] |  | 706.3 ± 153.4 | 573.7 ± 109.3 | 191.9 ± 34.9 | 104.6 ± 39.6 |  | 9.1 ± 2.7 | antiparkinsonian activity of levodopa (antiparkinsonian score) [2, 5]: does not lower the antiparkinsonian activity of levodopa; onset of action of levodopa (Elapsed Time after Levodopa Administration) [2, 5]: does not delay the onset of action of levodopa; Duration of Levodopa-Response ([2]; compound A-1 20 mg/kg oral with levodopa/benserazide, five monkeys, extended from 230 minutes): 265 min; Mean Dyskinesia Score (total period) ([2]; compound A-1 20 mg/kg oral with levodopa/benserazide, five monkeys, reduced from 2.8): 2.1; locomotor response ([2]; oral 20 mg/kg JN403, baseline 230 count over 4 h): no effect; mean parkinsonian score ([2]; oral 20 mg/kg JN403): 9.0; Plasma ([1]; 0.5 hour): 634.9 ± 261.3 pmol/mL; Plasma ([1]; 1 hour): 684.7 ± 339.6 pmol/mL; Plasma ([1]; 2 hour): 168.2 ± 91.3 pmol/mL; Plasma ([1]; 4 hour): 85.0 ± 54.3 pmol/mL; Brain ([1]; 6 hour): 40.5 ± 12.1 pmol/g; Plasma ([1]; 6 hour): 29.5 ± 13.8 pmol/mL; Plasma ([1]; 24 hour): 3.8 ± 0.6 pmol/mL; Reduction in time scrutinizing in % ± SEM at 24 h [3]: 52 ± 4% |
| Cc1cccc(C#Cc2ccccc2)n1 [F-2, 2-Methyl-6-phenylethynyl-pyridine, reference compound] |  |  |  |  |  |  |  | locomotor response ([2]; oral 10 mg/kg MPEP, increased from 230): 810 count over 4 h; mean parkinsonian score ([2]; oral 10 mg/kg MPEP): 8.2 |
| Cc1cc(/C(=C/Nc2ccc(Cl)cc2)C(=O)Nc2ccc(Cl)cc2)on1 [E-1, (Z)—N-(4-Chloro-phenyl)-3-(4-chloro-phenylamino)-2-(3-methyl-isoxazol-5-yl)-acrylamide] |  |  |  |  |  |  |  | L-dopa induced dyskinesias [4]: able to reduce L-dopa induced dyskinesias |
| c1cc2cc(-c3cnc(O[C@H]4CCN5CCC[C@@H]4C5)nc3)ccc2[nH]1 [C-1, (4S,5R)-4-[5-(1H-indol-5-yl)-pyrimidin-2-yloxy]-1-aza-bicyclo[3.3.1]nonane] | 620 ± 221 | 1405 ± 539 | 1458 ± 189 | 1478 ± 259 | 842 ± 187 | 362 ± 62 |  |  |
